Experimental data: ChEMBL document CHEMBL5120764, “Isarubrolone C Promotes Autophagic Degradation of Virus Proteins via Activating ATG10S in HepG2 Cells” (J Nat Prod, 2022)
The source made the active and inactive calls.

Key:
Format in all cases: functional, cell-based
[1] = tested on: HepG2; assay: Effect on LC3B-II protein degradation in human HepG2 cells at 10 uM pretreated with proteosome inhibitor MG132 for 12 hrs followed by compound addition and measured after 24 hrs by western blot analysis
[2] = tested on: HepG2; assay: Upregulation of HBx in human HepG2 cells transfected with HBx and gene knockdown by IL28A morpholinos at 10 uM incubated for 24 hrs by western blot analysis
[3] = tested on: HepG2; assay: Upregulation of IL28A mRNA expression level in human HepG2 cells transfected with HBV-X upto 10 uM by qRT-PCR analysis; conditions: DDE = dose-dependent effect
[4] = tested on: HepG2; assay: Effect on HBx degradation in human HepG2 cells transfected with HBx at 10 uM pretreated with proteosome inhibitor MG132 for 12 hrs followed by compound addition and measured after 24 hrs by western blot analysis
[5] = tested on: HepG2; assay: Induction of autophagy in human HepG2 cells transfected with HCV subgenomic replicon assessed as HCV-CORE/LC3B combination at 10 uM incubated for 24 hrs in presence of anti-LAMP2 antibodies by co-immunoprecipitation assay
[6] = tested on: HepG2; assay: Downregulation of HCV-NS5B in human HepG2 cells co-transfected with HCV-subreplicon and ATG10-misMO upto 10 uM incubated for 24 hrs by western blot analysis
[7] = tested on: HepG2; assay: Induction of autophagy in human HepG2 cells assessed as decrease in P62 expression level upto 10 uM and measured after 6 hrs by western blot analysis; conditions: DDE = dose-dependent effect
[8] = tested on: HepG2; assay: Upregulation of ATG10/ATG10S mRNA level in human HepG2 cells transfected with HCV sub-replicon upto 10 uM by RT-PCR analysis; conditions: DDE = dose-dependent effect
[9] = tested on: HepG2; assay: Upregulation of endogenous ATG10S activated co-localisation of HBx with LC3B in human HepG2 cells co-transfected with HBx and ATG10-sMO by cellular immunofluorescence assay
[10] = tested on: HepG2; assay: Induction of autophagy in human HepG2 cells transfected with HIV-RT and gene knockdown by IL28A morpholinos assessed as LC3B and LAMP2 interaction at 10 uM incubated for 24 hrs in presence of anti-LC3B antibodies by co-immunoprecipitation assay
[11] = tested on: HepG2; assay: Upregulation of endogenous ATG10S activated co-localisation of HIV-RT with LAMP2 in human HepG2 cells co-transfected with HIV-RT and ATG10-sMO by cellular immunofluorescence assay
[12] = tested on: HepG2; assay: Upregulation of LC3B in human HepG2 cells transfected with HBx and gene knockdown by IL28A morpholinos at 10 uM incubated for 24 hrs by western blot analysis
[13] = tested on: HepG2; assay: Upregulation of LC3B in human HepG2 cells transfected with HIV-RT and gene knockdown by IL28A morpholinos at 10 uM incubated for 24 hrs by western blot analysis
[14] = tested on: HepG2; assay: Upregulation of ATG10/ATG10S mRNA level in human HepG2 cells transfected with HBx upto 10 uM by RT-PCR analysis; conditions: DDE = dose-dependent effect
[15] = tested on: HepG2; assay: Induction of autophagy in human HepG2 cells transfected with HIV-RT assessed as increase in HIV-RT-LAMP2 interaction level at 10 uM incubated for 24 hrs in presence of anti-Flag antibodies by co-immunoprecipitation assay
[16] = tested on: HepG2; assay: Induction of autophagy in human HepG2 cells transfected with HCV subgenomic replicon assessed as HCV-CORE/P62 combination at 10 uM incubated for 24 hrs in presence of anti-LAMP2 antibodies by co-immunoprecipitation assay
[17] = tested on: HepG2; assay: Upregulation of endogenous ATG10S activated co-localisation of HIV-RT with LAMP2 in human HepG2 cells co-transfected with HIV-RT and ATG10-misMO by cellular immunofluorescence assay
[18] = tested on: HepG2; assay: Induction of autophagy in human HepG2 cells transfected with HCV subgenomic replicon assessed as HCV-NS5B/P62 combination at 10 uM incubated for 24 hrs in presence of anti-LAMP2 antibodies by co-immunoprecipitation assay
[19] = tested on: HepG2; assay: Induction of autophagy in human HepG2 cells co-transfected with ZIKV-NS5 assessed as decrease in ZIKV-NS5 protein level upto 10 uM and measured after 6 hrs by western blot analysis; conditions: DDE = dose-dependent effect
[20] = tested on: HepG2; assay: Upregulation of HIV-RT in human HepG2 cells transfected with HIV-RT and gene knockdown by IL28A morpholinos at 10 uM incubated for 24 hrs by western blot analysis
[21] = tested on: HepG2; assay: Induction of autophagy in human HepG2 cells assessed as […] in LC3B marker expression level upto 10 uM and measured after 6 hrs by western blot analysis; conditions: DDE = dose-dependent effect
[22] = tested on: HepG2; assay: Induction of autophagy in human HepG2 cells transfected with HCV subgenomic replicon assessed as HCV-NS5B/ATG10/ATG10S combination at 10 uM incubated for 24 hrs in presence of anti-LAMP2 antibodies by co-immunoprecipitation assay
[23] = tested on: HepG2; assay: Induction of autophagy in human HepG2 cells transfected with ZIKV-NS5 assessed as increase in ZIKV-NS5-LC3B interaction level at 10 uM incubated for 24 hrs in presence of anti-Flag antibodies by co-immunoprecipitation assay
[24] = tested on: HepG2; assay: Downregulation of HIV-RT in human HepG2 cells transfected with HIV-RT upto 10 uM incubated for 24 hrs by western blot analysis
[25] = tested on: HepG2; assay: Upregulation of IL28A mRNA expression level in human HepG2 cells transfected with HCV sub-replicon upto 10 uM by qRT-PCR analysis; conditions: DDE = dose-dependent effect
[26] = tested on: HepG2; assay: Downregulation of ZIKV-NS5 in human HepG2 cells transfected with ZIKV-NS5 upto 10 uM incubated for 24 hrs by western blot analysis
[27] = tested on: HepG2; assay: Induction of autophagy in human HepG2 cells transfected with HCV subgenomic replicon assessed as HCV-NS5B/P62 combination at 10 uM incubated for 24 hrs in presence of anti-LC3B antibodies by co-immunoprecipitation assay
[28] = tested on: HepG2; assay: Induction of autophagy in human HepG2 cells transfected with HCV sub-replicon assessed as decrease in HCV-CORE protein level upto 10 uM and measured after 6 hrs by western blot analysis; conditions: DDE = dose-dependent effect
[29] = tested on: HepG2; assay: Induction of autophagy in human HepG2 cells transfected with HBV-X and gene knockdown by IL28A morpholinos assessed as LC3B and LAMP2 interaction at 10 uM incubated for 24 hrs in presence of anti-LC3B antibodies by co-immunoprecipitation assay
[30] = tested on: HepG2; assay: Induction of autophagy in human HepG2 cells transfected with HCV subgenomic replicon assessed as HCV-NS5B/LC3B combination at 10 uM incubated for 24 hrs in presence of anti-LAMP2 antibodies by co-immunoprecipitation assay
[31] = tested on: HepG2; assay: Induction of autophagy in human HepG2 cells transfected with ZIKV-NS5 assessed as increase in ZIKV-NS5-P62 interaction level at 10 uM incubated for 24 hrs in presence of anti-Flag antibodies by co-immunoprecipitation assay
[32] = tested on: HepG2; assay: Induction of autophagy in human HepG2 cells transfected with HBx assessed as increase in HBx-LC3B interaction level at 10 uM incubated for 24 hrs in presence of anti-Flag antibodies by co-immunoprecipitation assay

Measured: Activity

CC[C@@H](O)c1nc(C)cc2c1C(=O)c1cc(=O)c3c(c(O)c1-2)O[C@@H]1O[C@H](C)[C@@H](OC)[C@@H](O)[C@]31O
active: [1] | [2] | [3] Dde | [4] | [5] | [6] | [7] Dde | [8] Dde | [9] | [10] | [11] | [12] | [13] | [14] Dde | [15] | [16] | [17] | [18] | [19] Dde | [20] | [21] Dde | [22] | [23] | [24] | [25] Dde | [26] | [27] | [28] Dde | [29] | [30] | [31] | [32]
